{
  "source": "patent US11376307B2",
  "about": "“Compositions and methods of treating cancer with glycomimetic peptides” (SUSAVION BIOSCIENCES, INC., priority 2018, dated 2022)",
  "key": {"human ASGPR-1": {"target": "T1, human ASGPR-1 (Homo sapiens, UniProt P07306)", "T1 construct": "The extracellular domains of receptors, which were fused with the Fc domain of immunoglobulin IgG; purchased R&D Systems", "T1 sequence (P07306 62-291 limits assumed)": "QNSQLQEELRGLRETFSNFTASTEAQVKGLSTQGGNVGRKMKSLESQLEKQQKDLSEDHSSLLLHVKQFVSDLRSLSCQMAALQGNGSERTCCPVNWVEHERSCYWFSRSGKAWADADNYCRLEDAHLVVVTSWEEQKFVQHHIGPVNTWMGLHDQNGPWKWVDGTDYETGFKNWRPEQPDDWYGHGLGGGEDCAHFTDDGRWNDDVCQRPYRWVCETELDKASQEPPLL", "test": "Solid-phase binding assay with recombinant receptors", "details": "biotinylated tetravalent peptide", "experimental": "(§1) Binding Assays Solid-phase binding assays were performed with streptavidin-, protein A/G-, or Nickel-coated microtiter plates (Pierce). His-tagged or Fc-fusion recombinant receptors (R&D Systems, Minneapolis, Minn.) were reconstituted in PBS. Sufficient receptors were added to wells to saturate the coating. His-tagged receptors were added to each well at a 5-fold excess over the stated capacity of the Ni coating to minimize non-specific binding of the peptide. Wells were washed three times with binding buffer (25 mM Tris HCl, pH 7.4, 150 mM NaCl, 0.05% Tween-20) to remove unbound receptor and 50 μL of 2 μM biotinylated peptide in binding buffer were added and allowed to incubate for 1 h. The wells were washed four times with binding buffer and then incubated with 50 μL of 1 μg/mL streptavidin conjugated with peroxidase (Sigma-Aldrich) for 1 h. The wells were washed five times with binding buffer and 50 μL of peroxidase substrate (1-Step™ Ultra TMB, Pierce) were added. After several minutes to allow color development, the reaction was stopped with 50 μL 1 M H3PO4 and absorbance was measured at 450 nm. Bound streptavidin was quantitated by the specific activity of peroxidase (absorbance/ng protein conjugate/min) under the conditions of the assay.\n(§2) Solid-phase binding assays were performed with recombinant human receptors. Three variations of the binding assay were used in this study, all of which allowed the arms of the tetravalent peptide to have full flexibility. (i) Biotinylated peptide was bound in microtiter wells coated with streptavidin and incubated with recombinant human receptors. After extensive washing, the bound receptor was measured by peroxidase conjugated to a receptor-specific antibody. (ii) The extracellular domains of receptors, which were fused with the Fc domain of immunoglobulin IgG, were bound in wells coated with protein A/G. Biotinylated peptide was incubated with the receptors and, after extensive washing, bound peptide was measured with streptavidin conjugated with peroxidase. Or (iii), recombinant receptors with a poly-His tag were bound to Nickel-coated wells and incubated with biotinylated peptide. svL4 and sv6D contain His residues (FIGS. 1A, 1C) and can bind to the Ni coating, which was minimized by adding sufficient poly-His-tagged receptor to saturate the Ni coating."}, "CD44": {"target": "T2, CD44 (Homo sapiens, UniProt P16070)", "T2 construct": "The extracellular domains of receptors, which were fused with the Fc domain of immunoglobulin IgG; purchased R&D Systems", "T2 sequence (P16070 21-220 limits assumed)": "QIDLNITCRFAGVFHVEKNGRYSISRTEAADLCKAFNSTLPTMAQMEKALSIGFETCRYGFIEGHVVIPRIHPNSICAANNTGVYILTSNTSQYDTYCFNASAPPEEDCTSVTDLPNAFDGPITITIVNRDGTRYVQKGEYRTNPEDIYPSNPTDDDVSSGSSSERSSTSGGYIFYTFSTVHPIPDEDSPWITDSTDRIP", "test": "Solid-phase binding assay, survey of other receptors", "experimental": "as §1, §2\n(§3) Of the receptors we have assayed thus far, the peptides bound to those specific for GalNAc, which included CLEC4F, a GalNAc-binding receptor expressed by Kupffer cells that is also homologous to ASGPR-1 [50]."}, "CLEC9A": {"target": "T3, CLEC9A (Homo sapiens, UniProt Q6UXN8)", "T3 construct": "The extracellular domains of receptors, which were fused with the Fc domain of immunoglobulin IgG; purchased R&D Systems", "T3 sequence (Q6UXN8 57-241 limits assumed)": "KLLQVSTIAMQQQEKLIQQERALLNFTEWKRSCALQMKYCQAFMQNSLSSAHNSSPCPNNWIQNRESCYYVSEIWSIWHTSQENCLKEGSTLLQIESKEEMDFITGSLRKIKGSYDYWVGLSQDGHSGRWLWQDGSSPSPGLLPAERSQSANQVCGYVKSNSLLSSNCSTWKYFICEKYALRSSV", "test": "Solid-phase binding assay, survey of other receptors", "experimental": "as §1, §2, §3"}, "DC-SIGN": {"target": "T4, DC-SIGN (Homo sapiens, UniProt Q9NNX6)", "T4 construct": "The extracellular domains of receptors, which were fused with the Fc domain of immunoglobulin IgG; purchased R&D Systems", "T4 sequence (Q9NNX6 59-404 limits assumed)": "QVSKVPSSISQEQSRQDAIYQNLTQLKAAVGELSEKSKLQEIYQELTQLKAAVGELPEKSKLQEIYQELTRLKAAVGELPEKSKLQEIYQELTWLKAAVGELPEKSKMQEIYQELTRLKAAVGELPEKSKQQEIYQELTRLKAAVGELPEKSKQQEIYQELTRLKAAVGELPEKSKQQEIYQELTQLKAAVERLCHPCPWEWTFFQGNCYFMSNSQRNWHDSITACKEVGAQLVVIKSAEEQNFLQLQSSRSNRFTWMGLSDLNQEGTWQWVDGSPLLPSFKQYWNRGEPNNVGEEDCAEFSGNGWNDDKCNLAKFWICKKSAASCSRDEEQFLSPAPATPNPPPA", "test": "Solid-phase binding assay, survey of other receptors", "experimental": "as §1, §2, §3"}, "IL-4R": {"target": "T5, IL-4R (Homo sapiens, UniProt P24394)", "T5 construct": "The extracellular domains of receptors, which were fused with the Fc domain of immunoglobulin IgG; purchased R&D Systems", "T5 sequence (P24394 26-232 limits assumed)": "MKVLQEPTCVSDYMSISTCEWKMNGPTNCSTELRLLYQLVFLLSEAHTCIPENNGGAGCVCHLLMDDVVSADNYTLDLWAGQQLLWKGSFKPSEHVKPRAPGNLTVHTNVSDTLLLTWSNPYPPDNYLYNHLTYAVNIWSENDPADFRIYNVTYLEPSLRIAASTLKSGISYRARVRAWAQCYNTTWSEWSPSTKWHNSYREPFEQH", "test": "Solid-phase binding assay, survey of other receptors", "experimental": "as §1, §2, §3"}, "Siglec-1": {"target": "T6, Siglec-1 (Homo sapiens, UniProt Q9BZZ2)", "T6 construct": "The extracellular domains of receptors, which were fused with the Fc domain of immunoglobulin IgG; purchased R&D Systems", "T6 sequence (Q9BZZ2 20-1641 limits assumed)": "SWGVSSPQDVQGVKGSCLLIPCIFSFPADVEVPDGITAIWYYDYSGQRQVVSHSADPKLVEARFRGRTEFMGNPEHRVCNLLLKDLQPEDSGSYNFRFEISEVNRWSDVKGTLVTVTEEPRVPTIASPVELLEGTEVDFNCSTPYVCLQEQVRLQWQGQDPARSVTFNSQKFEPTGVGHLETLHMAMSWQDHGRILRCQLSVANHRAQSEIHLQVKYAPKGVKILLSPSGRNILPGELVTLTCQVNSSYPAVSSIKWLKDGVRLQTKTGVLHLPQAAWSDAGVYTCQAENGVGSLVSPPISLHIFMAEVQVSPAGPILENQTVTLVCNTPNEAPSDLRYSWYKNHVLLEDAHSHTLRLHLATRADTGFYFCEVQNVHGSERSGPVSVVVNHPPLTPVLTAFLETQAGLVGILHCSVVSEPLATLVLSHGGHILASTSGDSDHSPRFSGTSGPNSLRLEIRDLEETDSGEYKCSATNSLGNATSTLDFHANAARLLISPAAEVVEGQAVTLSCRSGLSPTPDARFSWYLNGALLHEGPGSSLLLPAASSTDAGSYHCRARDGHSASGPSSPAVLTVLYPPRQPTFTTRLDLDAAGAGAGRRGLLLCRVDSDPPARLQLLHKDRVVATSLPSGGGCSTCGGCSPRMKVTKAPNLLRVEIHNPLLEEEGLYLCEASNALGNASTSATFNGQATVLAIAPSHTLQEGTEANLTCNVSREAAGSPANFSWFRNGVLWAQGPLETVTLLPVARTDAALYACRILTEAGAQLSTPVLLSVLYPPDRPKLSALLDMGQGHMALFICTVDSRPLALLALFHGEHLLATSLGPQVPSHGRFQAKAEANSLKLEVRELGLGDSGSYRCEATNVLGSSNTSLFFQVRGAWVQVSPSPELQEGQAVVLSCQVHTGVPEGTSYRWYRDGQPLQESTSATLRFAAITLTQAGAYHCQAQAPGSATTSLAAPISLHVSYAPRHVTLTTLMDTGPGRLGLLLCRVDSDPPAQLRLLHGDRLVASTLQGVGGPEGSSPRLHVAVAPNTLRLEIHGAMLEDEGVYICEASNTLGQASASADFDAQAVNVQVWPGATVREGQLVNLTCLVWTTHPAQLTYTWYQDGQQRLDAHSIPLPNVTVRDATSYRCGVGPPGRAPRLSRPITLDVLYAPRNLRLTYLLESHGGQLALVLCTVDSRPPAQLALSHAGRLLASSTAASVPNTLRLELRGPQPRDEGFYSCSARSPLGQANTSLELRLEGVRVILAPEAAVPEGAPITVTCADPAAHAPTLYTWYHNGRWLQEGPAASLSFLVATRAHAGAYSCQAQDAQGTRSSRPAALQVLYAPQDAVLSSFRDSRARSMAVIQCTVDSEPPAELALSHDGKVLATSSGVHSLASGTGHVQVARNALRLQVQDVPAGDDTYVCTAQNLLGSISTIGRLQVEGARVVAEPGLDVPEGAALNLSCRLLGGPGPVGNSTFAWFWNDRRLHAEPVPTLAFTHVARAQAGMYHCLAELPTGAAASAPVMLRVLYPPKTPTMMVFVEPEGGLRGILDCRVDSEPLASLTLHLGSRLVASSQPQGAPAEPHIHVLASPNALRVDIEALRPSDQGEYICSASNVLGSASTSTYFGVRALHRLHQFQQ", "test": "Solid-phase binding assay, survey of other receptors", "experimental": "as §1, §2, §3"}, "CLEC4F": {"system": "CLEC4F", "test": "Solid-phase binding assay, survey of other receptors", "set-up": "species or system human", "experimental": "as §1, with “The wells were washed five times with binding buffer and 50 μL of peroxidase substrate (1-Step™ Ultra TMB, Pierce) were added.” left out\nSolid-phase binding assays were performed with recombinant human receptors. […] After extensive washing, the bound receptor was measured by peroxidase conjugated to a receptor-specific antibody. […]"}, "[1]": {"test": "Antigenicity assay of mouse sera", "set-up": "species or system mice", "details": "alternate-day injections for 3 months, 1 nmol/g", "experimental": "FIG. 10. Test for antigenicity of svL4 and sv6D. Anti-sera were generated in rabbits against KLH-conjugates of the sequences of svL4 or sv6D and diluted 1:10. Mouse sera were collected after alternate-day injections of svL4 over 3 months, diluted 1:1 with PBS and added to protein-A/G-coated wells. Biotinylated svL4 or sv6D was added to wells and bound peptide was detected with a streptavidin-peroxidase conjugate. The figure includes average values for sera from 8 treated mice in each group assayed separately.\nAntigenicity Assay The sequence of one arm of svL4 or sv6D was conjugated to keyhole limpet hemocyanin (KLH) and injected into rabbits at two-week intervals (total of 3 injections) (New England Peptide, Inc., Gardner, Mass.). Two weeks after the final injection, sera were prepared. Mice were injected with a peptide every other day over a period of 3 months (total ˜45 injections), blood was then collected by cardiac puncture and sera were prepared. Rabbit serum was diluted 1:10, whereas mouse serum was diluted 1:1 or 1:5 with PBS containing 0.05% Tween-20 (PBST). Sera were incubated in microtiter wells coated with protein A/G (Pierce) for 90 min. The wells were washed three times with PBST, and then incubated with 50 μL of 1 μM biotinylated svL4 or sv6D for 1 h. […]"}},
  "note": "“Also recorded” adds a separate entry of the source. Positions of bridges follow the written chain, without caps; N, C: chain ends. Chains are numbered I, II in the order given.",
  "data": [
    {"substance": "I: H-NQHTPRGGGSKK-NH2 / II: H-NQHTPRGGGSK / III: H-NQHTPRGGGS / IV: H-NQHTPRGGGS (amide I:11-IV:C, I:12-II:C, II:11-III:C) [sv6D]", "values": [
      {"measurement": "Binding to ASGPR-1", "setting": "human ASGPR-1", "value": "bound as strongly as the full-length sequence"},
      {"measurement": "Binding to CD44", "setting": "CD44", "value": "not detected"},
      {"measurement": "Binding to CLEC9A", "setting": "CLEC9A", "value": "did not bind significantly"},
      {"measurement": "Binding to DC-SIGN", "setting": "DC-SIGN", "value": "did not bind significantly"},
      {"measurement": "Binding to IL-4R", "setting": "IL-4R", "value": "not detected"},
      {"measurement": "Binding to Siglec-1", "setting": "Siglec-1", "value": "did not bind significantly"},
      {"measurement": "Binding to CLEC4F", "setting": "CLEC4F", "value": "bound"},
      {"measurement": "Antibodies that bind the peptides in mouse sera (antigenicity)", "setting": "[1]", "value": "negative; also recorded: not antigenic"}
    ]},
    {"substance": "I: H-VQATQSNQHTPRGGGSKK-NH2 / II: H-VQATQSNQHTPRGGGSK / III: H-VQATQSNQHTPRGGGS / IV: H-VQATQSNQHTPRGGGS (amide I:17-IV:C, I:18-II:C, II:17-III:C) [svL4]", "values": [
      {"measurement": "Binding to ASGPR-1", "setting": "human ASGPR-1", "value": "bound"},
      {"measurement": "Binding to CD44", "setting": "CD44", "value": "not detected"},
      {"measurement": "Binding to CLEC9A", "setting": "CLEC9A", "value": "did not bind significantly"},
      {"measurement": "Binding to DC-SIGN", "setting": "DC-SIGN", "value": "did not bind significantly"},
      {"measurement": "Binding to IL-4R", "setting": "IL-4R", "value": "not detected"},
      {"measurement": "Binding to Siglec-1", "setting": "Siglec-1", "value": "did not bind significantly"},
      {"measurement": "Binding to CLEC4F", "setting": "CLEC4F", "value": "bound"},
      {"measurement": "Antibodies that bind the peptides in mouse sera (antigenicity)", "setting": "[1]", "value": "negative"}
    ]}
  ]
}
